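1) Cells in 96-well plates. 2) Compound, 48 h, 5 concentrations. 3) Linear interpolation between surrounding doses. 4) Unreached endpoint = highest concentration. The concentration for 50% growth inhibition is given as GI50.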 Activity calls are given as the source filed them. Rule as the data show it: active = GI50 up to about 1.1 µM and inactive = higher.
Key:
Test in all cases: growth of human tumour cells (NCI), 48 h
TK-10 = tested on: TK-10
SK-MEL-2 = tested on: SK-MEL-2
HOP-18 = tested on: HOP-18
NCI-H522 = tested on: NCI-H522
SNB-75 = tested on: SNB-75
SN12C = tested on: SN12C
DMS-273 = tested on: DMS-273
NCI-H23 = tested on: NCI-H23
SW-620 = tested on: SW-620
HOP-62 = tested on: HOP-62
SK-MEL-28 = tested on: SK-MEL-28
KM12 = tested on: KM12
NCI-H226 = tested on: NCI-H226
HT-29 = tested on: HT-29
SNB-78 = tested on: SNB-78
EKVX = tested on: EKVX
LXFL 529 = tested on: LXFL 529
LOX IMVI = tested on: LOX IMVI
SK-OV-3 = tested on: SK-OV-3
HOP-92 = tested on: HOP-92
Malme-3M = tested on: Malme-3M
CCRF-CEM = tested on: CCRF-CEM
HCT-116 = tested on: HCT-116
786-0 = tested on: 786-0
UACC-62 = tested on: UACC-62
MDA-MB-435 = tested on: MDA-MB-435
BT-549 = tested on: BT-549
SR = tested on: SR
MOLT-4 = tested on: MOLT-4
K562 = tested on: K562
OVCAR-4 = tested on: OVCAR-4
OVCAR-8 = tested on: OVCAR-8
A498 = tested on: A498
M14 = tested on: M14
Hs-578T = tested on: Hs-578T
OVCAR-3 = tested on: OVCAR-3
U-251 = tested on: U-251
RXF 393 = tested on: RXF 393
NCI-H460 = tested on: NCI-H460
PC-3 = tested on: PC-3
SF-295 = tested on: SF-295
MDA-N = tested on: MDA-N
HL-60 = tested on: HL-60
MCF7 = tested on: MCF7
SK-MEL-5 = tested on: SK-MEL-5
RPMI-8226 = tested on: RPMI-8226
SF-539 = tested on: SF-539
OVCAR-5 = tested on: OVCAR-5
HCC 2998 = tested on: HCC 2998
HCT-15 = tested on: HCT-15
CAKI-1 = tested on: CAKI-1
UO-31 = tested on: UO-31
T47D = tested on: T47D
ACHN = tested on: ACHN
MDA-MB-231 = tested on: MDA-MB-231
NCI/ADR-RES = tested on: NCI/ADR-RES
COLO 205 = tested on: COLO 205
UACC-257 = tested on: UACC-257
IGROV-1 = tested on: IGROV-1
SF-268 = tested on: SF-268
DU-145 = tested on: DU-145
A549 = tested on: A549
SNB-19 = tested on: SNB-19

For `CC(C)C(=O)CC(c1ccc(Cl)cc1)N1N=C(C(C)C)CC1c1ccc(Cl)cc1` (configuration not stated), the GI50 (TK-10) was > 100 µM (inactive), the GI50 (SK-MEL-2) was > 51.5 µM (inactive) and the GI50 (HOP-18) was < 0.01 µM (active). The GI50 (NCI-H522) was < 0.01 µM (active), the GI50 (SNB-75) was 86.9 µM (inactive) and the GI50 (SN12C) was < 0.01 µM (active). For the same compound, the GI50 (DMS-273) was < 0.01 µM (active), the GI50 (NCI-H23) was 22.6 µM (inactive) and the GI50 (SW-620) was 37.2 µM (inactive). For the same compound, the GI50 (HOP-62) was 70 µM (inactive), the GI50 (SK-MEL-28) was 40.7 µM (inactive) and the GI50 (KM12) was 40.6 µM (inactive). The GI50 (NCI-H226) was > 100 µM (inactive), the GI50 (HT-29) was 14.6 µM (inactive) and the GI50 (SNB-78) was 5.97 µM (inactive). The GI50 (EKVX) was 29.5 µM (inactive), the GI50 (LXFL 529) was 98.4 µM (inactive) and the GI50 (LOX IMVI) was < 0.01 µM (active). The GI50 (SK-OV-3) was < 0.01 µM (active), the GI50 (HOP-92) was > 86.3 µM (inactive) and the GI50 (Malme-3M) was < 0.01 µM (active).
With `CC1=C(C#N)C(=O)N(/N=C/c2ccc(Cl)cc2)C(=O)/C1=c1\o/c(=C2/C(=O)N(/N=C/c3ccc(Cl)cc3)C(=O)C(C#N)=C2C)c2nccnc12` the GI50 (CCRF-CEM) was 70.3 µM (inactive), the GI50 (HCT-116) was 76.7 µM (inactive) and the GI50 (786-0) was > 100 µM (inactive). For the same compound, the GI50 (SK-MEL-2) was > 100 µM (inactive), the GI50 (UACC-62) was > 100 µM (inactive) and the GI50 (MDA-MB-435) was > 100 µM (inactive). For the same compound, the GI50 (BT-549) was > 100 µM (inactive), the GI50 (SR) was 80.5 µM (inactive) and the GI50 (MOLT-4) was 88.3 µM (inactive). The GI50 (K562) was 69.7 µM (inactive), the GI50 (OVCAR-4) was 57.5 µM (inactive) and the GI50 (OVCAR-8) was > 100 µM (inactive). For the same compound, the GI50 (NCI-H522) was > 100 µM (inactive), the GI50 (A498) was > 100 µM (inactive) and the GI50 (SNB-75) was 15.3 µM (inactive). For the same compound, the GI50 (SN12C) was > 100 µM (inactive), the GI50 (M14) was > 100 µM (inactive) and the GI50 (Hs-578T) was 21.2 µM (inactive). For the same compound, the GI50 (OVCAR-3) was > 100 µM (inactive), the GI50 (NCI-H23) was > 100 µM (inactive) and the GI50 (SW-620) was > 100 µM (inactive). For the same compound, the GI50 (U-251) was > 100 µM (inactive), the GI50 (RXF 393) was 19.5 µM (inactive) and the GI50 (NCI-H460) was > 100 µM (inactive). The GI50 (PC-3) was 60.7 µM (inactive), the GI50 (SF-295) was > 100 µM (inactive) and the GI50 (MDA-N) was 77.3 µM (inactive). For the same compound, the GI50 (SK-MEL-28) was > 100 µM (inactive), the GI50 (KM12) was 47.1 µM (inactive) and the GI50 (HL-60) was 84.5 µM (inactive). The GI50 (NCI-H226) was 78.2 µM (inactive), the GI50 (MCF7) was 70.5 µM (inactive) and the GI50 (SK-MEL-5) was 96.6 µM (inactive). For the same compound, the GI50 (HT-29) was > 100 µM (inactive), the GI50 (RPMI-8226) was 60.7 µM (inactive) and the GI50 (SF-539) was > 100 µM (inactive). For the same compound, the GI50 (OVCAR-5) was > 100 µM (inactive), the GI50 (HCC 2998) was 42.2 µM (inactive) and the GI50 (HCT-15) was 82 µM. For the same compound, the GI50 (CAKI-1) was > 100 µM (inactive), the GI50 (UO-31) was 85.7 µM (inactive) and the GI50 (T47D) was > 100 µM (inactive). The GI50 (ACHN) was > 100 µM (inactive), the GI50 (MDA-MB-231) was > 100 µM (inactive) and the GI50 (EKVX) was > 100 µM (inactive). The GI50 (LOX IMVI) was > 100 µM (inactive), the GI50 (NCI/ADR-RES) was > 100 µM (inactive) and the GI50 (COLO 205) was > 100 µM (inactive). For the same compound, the GI50 (UACC-257) was > 100 µM (inactive), the GI50 (IGROV-1) was > 100 µM (inactive) and the GI50 (SK-OV-3) was > 100 µM (inactive). The GI50 (SF-268) was 47.3 µM (inactive), the GI50 (HOP-92) was > 100 µM (inactive) and the GI50 (DU-145) was > 100 µM (inactive). For the same compound, the GI50 (A549) was > 100 µM (inactive), the GI50 (Malme-3M) was > 100 µM (inactive) and the GI50 (SNB-19) was > 100 µM (inactive).
With `O=C1c2ccccc2CN1c1ccc(OCCN2CCCCC2)cc1` the GI50 (CCRF-CEM) was > 10 µM (inactive), the GI50 (HCT-116) was > 10 µM (inactive) and the GI50 (TK-10) was > 10 µM (inactive). The GI50 (786-0) was > 10 µM (inactive), the GI50 (SK-MEL-2) was > 10 µM (inactive) and the GI50 (UACC-62) was > 10 µM (inactive). For the same compound, the GI50 (MDA-MB-435) was > 10 µM (inactive), the GI50 (BT-549) was > 10 µM (inactive) and the GI50 (SR) was > 10 µM (inactive). For the same compound, the GI50 (MOLT-4) was > 10 µM (inactive), the GI50 (K562) was > 10 µM (inactive) and the GI50 (OVCAR-4) was > 10 µM (inactive). The GI50 (OVCAR-8) was > 10 µM (inactive), the GI50 (NCI-H522) was > 10 µM (inactive) and the GI50 (A498) was > 10 µM (inactive). The GI50 (SNB-75) was > 10 µM (inactive), the GI50 (SN12C) was > 10 µM (inactive) and the GI50 (M14) was > 10 µM (inactive). The GI50 (Hs-578T) was > 10 µM (inactive), the GI50 (OVCAR-3) was > 10 µM (inactive) and the GI50 (NCI-H23) was > 10 µM (inactive). For the same compound, the GI50 (SW-620) was > 10 µM (inactive), the GI50 (U-251) was > 10 µM (inactive) and the GI50 (HOP-62) was > 10 µM (inactive). The GI50 (RXF 393) was > 10 µM (inactive), the GI50 (NCI-H460) was > 10 µM (inactive) and the GI50 (PC-3) was > 10 µM (inactive). For the same compound, the GI50 (SF-295) was > 10 µM (inactive), the GI50 (MDA-N) was > 10 µM (inactive) and the GI50 (SK-MEL-28) was > 10 µM (inactive). The GI50 (KM12) was > 10 µM (inactive), the GI50 (HL-60) was > 10 µM (inactive) and the GI50 (NCI-H226) was > 10 µM (inactive). For the same compound, the GI50 (MCF7) was > 10 µM (inactive), the GI50 (SK-MEL-5) was > 10 µM (inactive) and the GI50 (HT-29) was > 10 µM (inactive). The GI50 (RPMI-8226) was > 10 µM (inactive), the GI50 (SF-539) was > 10 µM (inactive) and the GI50 (OVCAR-5) was > 10 µM (inactive). The GI50 (HCC 2998) was > 10 µM (inactive), the GI50 (HCT-15) was greater than 10 µM and the GI50 (CAKI-1) was > 10 µM (inactive). For the same compound, the GI50 (UO-31) was > 10 µM (inactive), the GI50 (T47D) was > 10 µM (inactive) and the GI50 (ACHN) was > 10 µM (inactive). For the same compound, the GI50 (MDA-MB-231) was > 10 µM (inactive), the GI50 (EKVX) was > 10 µM (inactive) and the GI50 (LOX IMVI) was > 10 µM (inactive). For the same compound, the GI50 (NCI/ADR-RES) was > 10 µM (inactive), the GI50 (COLO 205) was > 10 µM (inactive) and the GI50 (UACC-257) was > 10 µM (inactive). The GI50 (IGROV-1) was > 10 µM (inactive), the GI50 (SK-OV-3) was > 10 µM (inactive) and the GI50 (SF-268) was > 10 µM (inactive). For the same compound, the GI50 (HOP-92) was > 10 µM (inactive), the GI50 (DU-145) was > 10 µM (inactive) and the GI50 (A549) was > 10 µM (inactive). For the same compound, the GI50 (Malme-3M) was > 10 µM (inactive) and the GI50 (SNB-19) was > 10 µM (inactive).

Source: ChEMBL document CHEMBL1201862, “PubChem BioAssay data set” (2004)
